# What was measured:
# [1] = Saturated solubility in medium-chain triglycerides / isopropyl myristate / light liquid paraffin mixtures; type: physicochemical; settings: for Saturation solubility of 2-isopropyl-5-(2′-phenylethyl)-1,3-benzenediol: room temperature
# Source text: Experimental variables A, B, and C were set as the content of medium-chain triglycerides (%), isopropyl myristate (%), and light liquid paraffin (%), respectively (for the convenience of experimental design and operation, light liquid paraffin was used to represent all hydrocarbon compounds). According to the maximum safe dosage of excipients (FDA IID database), the variable range was set as follows: 0<A≤20, 0<B≤20. According to the preliminary experimental results (medium-chain triglycerides are more important for the dissolution of API and the stability of the system) and the requirements for the viscosity and skin feel of the ointment, the constraints were set as follows: A>B; A+B≤25%; A+B+C=100%.
# According to the variable range and constraint conditions, a total of 20 experimental formulations were designed. After the components were mixed evenly in proportion, an excess of 2-isopropyl-5-(2′-phenylethyl)-1,3-benzenediol was added, stirred overnight at room temperature, centrifuged, the supernatant was filtered and diluted, and the saturated solubility of 2-isopropyl-5-(2′-phenylethyl)-1,3-benzenediol was tested.
# The saturated solubility of 2-isopropyl-5-(2′-phenylethyl)-1,3-benzenediol in different proportions of medium-chain triglycerides, isopropyl myristate and light liquid paraffin solution was investigated to verify the accuracy of the prediction equation. The equation can accurately predict the solubility of API in different proportions of excipients. In practical applications, it is acceptable that the API content is within the range of no more than 1.2 times the saturated solubility, that is, 120%×(0.445829×A+0.032300×B−0.000599×C+0.008112×A×B−0.003841×A×C). Preferably, when the content of the active ingredient in the preparation is not higher than 0.445829×A+0.032300×B−0.000599×C+0.008112×A×B−0.003841×A×C, a better solution-type ointment can be prepared. It is further preferred that the content of the active ingredient in the preparation is not higher than 90% of the saturated solubility, that is, the content of the active ingredient in the preparation is not higher than 90%×(0.445829×A+0.032300×B−0.000599×C+0.008112×A×B−0.003841×A×C).
# [2] = Saturated solubility in different excipients; type: physicochemical
compound,measurement,setting,value
"CC(C)c1c(O)cc(CCc2ccccc2)cc1O [2-isopropyl-5-(2′-phenylethyl)-1,3-benzenediol]","Saturation solubility of 2-isopropyl-5-(2′-phenylethyl)-1,3-benzenediol","[1]; experimental formulation 1: MCT 5.97%, isopropyl myristate 5.97%, light liquid paraffin 88.06%",1.09%
same,"Saturation solubility of 2-isopropyl-5-(2′-phenylethyl)-1,3-benzenediol","[1]; experimental formulation 2: MCT 6.63%, isopropyl myristate 6.63%, light liquid paraffin 86.74%",1.22%
same,"Saturation solubility of 2-isopropyl-5-(2′-phenylethyl)-1,3-benzenediol","[1]; experimental formulation 3: MCT 20.00%, isopropyl myristate 0.00%, light liquid paraffin 80.00%",2.47%
same,"Saturation solubility of 2-isopropyl-5-(2′-phenylethyl)-1,3-benzenediol","[1]; experimental formulation 4: MCT 2.00%, isopropyl myristate 0.00%, light liquid paraffin 98.00%",0.11%
same,"Saturation solubility of 2-isopropyl-5-(2′-phenylethyl)-1,3-benzenediol","[1]; experimental formulation 5: MCT 12.50%, isopropyl myristate 12.50%, light liquid paraffin 75.00%",3.78%
same,"Saturation solubility of 2-isopropyl-5-(2′-phenylethyl)-1,3-benzenediol","[1]; experimental formulation 6: MCT 16.15%, isopropyl myristate 0.00%, light liquid paraffin 83.85%",2.07%
same,"Saturation solubility of 2-isopropyl-5-(2′-phenylethyl)-1,3-benzenediol","[1]; experimental formulation 7: MCT 20.00%, isopropyl myristate 0.00%, light liquid paraffin 80.00%",2.91%
same,"Saturation solubility of 2-isopropyl-5-(2′-phenylethyl)-1,3-benzenediol","[1]; experimental formulation 8: MCT 18.79%, isopropyl myristate 6.21%, light liquid paraffin 75.00%",4.13%
same,"Saturation solubility of 2-isopropyl-5-(2′-phenylethyl)-1,3-benzenediol","[1]; experimental formulation 9: MCT 11.30%, isopropyl myristate 3.90%, light liquid paraffin 84.80%",1.73%
same,"Saturation solubility of 2-isopropyl-5-(2′-phenylethyl)-1,3-benzenediol","[1]; experimental formulation 10: MCT 11.62%, isopropyl myristate 2.02%, light liquid paraffin 86.36%",1.55%
same,"Saturation solubility of 2-isopropyl-5-(2′-phenylethyl)-1,3-benzenediol","[1]; experimental formulation 11: MCT 10.84%, isopropyl myristate 0.00%, light liquid paraffin 89.16%",1.05%
same,"Saturation solubility of 2-isopropyl-5-(2′-phenylethyl)-1,3-benzenediol","[1]; experimental formulation 12: MCT 12.50%, isopropyl myristate 12.50%, light liquid paraffin 75.00%",3.42%
same,"Saturation solubility of 2-isopropyl-5-(2′-phenylethyl)-1,3-benzenediol","[1]; experimental formulation 13: MCT 9.35%, isopropyl myristate 8.77%, light liquid paraffin 81.88%",2.20%
same,"Saturation solubility of 2-isopropyl-5-(2′-phenylethyl)-1,3-benzenediol","[1]; experimental formulation 14: MCT 17.87%, isopropyl myristate 7.13%, light liquid paraffin 75.00%",4.11%
same,"Saturation solubility of 2-isopropyl-5-(2′-phenylethyl)-1,3-benzenediol","[1]; experimental formulation 15: MCT 10.84%, isopropyl myristate 0.00%, light liquid paraffin 89.16%",1.06%
same,"Saturation solubility of 2-isopropyl-5-(2′-phenylethyl)-1,3-benzenediol","[1]; experimental formulation 16: MCT 15.17%, isopropyl myristate 4.03%, light liquid paraffin 80.80%",2.65%
same,"Saturation solubility of 2-isopropyl-5-(2′-phenylethyl)-1,3-benzenediol","[1]; experimental formulation 17: MCT 13.29%, isopropyl myristate 8.31%, light liquid paraffin 78.40%",3.98%
same,"Saturation solubility of 2-isopropyl-5-(2′-phenylethyl)-1,3-benzenediol","[1]; experimental formulation 18: MCT 5.84%, isopropyl myristate 1.16%, light liquid paraffin 93.00%",0.48%
same,"Saturation solubility of 2-isopropyl-5-(2′-phenylethyl)-1,3-benzenediol","[1]; experimental formulation 19: MCT 2.00%, isopropyl myristate 0.00%, light liquid paraffin 98.00%",0.09%
same,"Saturation solubility of 2-isopropyl-5-(2′-phenylethyl)-1,3-benzenediol","[1]; experimental formulation 20: MCT 18.79%, isopropyl myristate 6.21%, light liquid paraffin 75.00%",3.95%
same,Measured saturated solubility,"[1]; validation group 1: MCT 20%, isopropyl myristate 0.85%, light liquid paraffin 79.15%",3.32%
same,Measured saturated solubility,"[1]; validation group 2: MCT 20%, isopropyl myristate 3.4%, light liquid paraffin 76.6%",3.85%
same,Measured saturated solubility,"[1]; validation group 3: MCT 13.75%, isopropyl myristate 9.23%, light liquid paraffin 77.02%",3.52%
same,Measured saturated solubility,"[1]; validation group 4: MCT 11.2%, isopropyl myristate 7.55%, light liquid paraffin 81.25%",2.56%
same,Measured saturated solubility,"[1]; validation group 5: MCT 8.72%, isopropyl myristate 5.04%, light liquid paraffin 86.24%",1.58%
same,Measured saturated solubility,"[1]; validation group 6: MCT 3%, isopropyl myristate 3%, light liquid paraffin 94%",0.401%
same,Measured saturated solubility,"[1]; validation group 7: MCT 2%, isopropyl myristate 2%, light liquid paraffin 96%",0.203%
same,saturated solubility,[2]; in 10% glycerol,0.00007%
same,saturated solubility,[2]; in 20% ethanol,0.02%
same,saturated solubility,[2]; in Span 80,3%
same,saturated solubility,[2]; in diethylene glycol monoethyl ether,52%
same,saturated solubility,[2]; in isopropyl myristate,27%
same,saturated solubility,[2]; in isopropyl palmitate,23%
same,saturated solubility,[2]; in light liquid paraffin,0.01%
same,saturated solubility,[2]; in medium-chain triglycerides,27%
same,saturated solubility,[2]; in polyethylene glycol 400,30%
same,saturated solubility,[2]; in polysorbate 80,17%
same,saturated solubility,[2]; in propylene glycol,30%
same,saturated solubility,[2]; in propylene glycol monolaurate,30%
same,saturated solubility,[2]; in water,0.0008%

# From patent US20260207490A1, “Hydroxydiphenylethane compound ointment, use thereof, and method for preparing same” (Cutia Therapeutics (Wuxi) Co., Ltd., priority 2022, published 2026)
